Legend:
[1] = tested on: H. contortus xL3 to L4 development; assay: High throughput screen, larval development and phenotype at 168 h; format: cell-based, Haemonchus contortus; conditions: for inhibition at 20 µM: Haemonchus contortus, development to L4; for Abnormal phenotype detected at 168 h: 20 µM
Procedure: Following the measurement of xL3 motility, plates were incubated again for 78 h (i.e., a total of 168 h) under the same conditions. Thereafter, 40 µl of 1% (v/v) iodine were added to individual wells, and worms examined using a light microscope (M80, Leica) at 60-times magnification to assess larval development, based on the presence/absence of a well-developed pharynx ([Sommerville, 1966]), and/or phenotypic alterations with respect to untreated xL3s.

[2] = tested on: exsheathed third-stage larvae (xL3s) of H. contortus; assay: High throughput screen, xL3 motility (infrared light beam-interference); format: cell-based; conditions: Haemonchus contortus, 90 h, read-out: Motility reduction at 90 h (%)
Procedure: An established platform was used for compound screening ([Taki et al., 2021a]). Using a semi-automated liquid handling robot (VIAFLO ASSIST PLUS, Integra Biosciences), compounds were individually diluted to […] in LB* containing 0.2% (v/v) DMSO and then dispensed in 20 µl into the wells of sterile 384-well flat bottom microtitre plates (cat. no. 3680; Corning); 320 compounds were arrayed on each plate, with 16 wells being negative controls (with LB* + 0.2% DMSO) and four wells containing each monepantel (Zolvix; Elanco), moxidectin (Cydectin; Virbac), monepantel + abamectin (Zolvix Plus; Elanco) and compound MIPS-0018666 (abbreviated here as M-666) ([Le et al., 2018]) as positive controls (20 µM). Following the dilution and dispensing of compounds into plates, 80 H. contortus xL3s in 20 μl of LB* were transferred to individual wells; after this step, the final concentrations were 20 µM of test- or positive-control compound, and 0.2% of DMSO. During dispensing, xL3s were maintained in a homogenous suspension using a constant stream of bubbles produced employing an aquarium pump (H2Pro). Plates containing H. contortus xL3s were incubated at 38 °C, 10% (v/v) CO2 and >90% relative humidity.
After 90 h of incubation with compounds (20 μM), H. contortus xL3s motility was measured for 15 min in individual wells of each plate by infrared light beam-interference ([Simonetta and Golombek, 2007]) using a WMicroTracker ONE instrument (Phylumtech). Raw data captured were normalised against measurements obtained for the positive (monepantel) and negative (LB* + 0.2% DMSO) controls to remove plate-to-plate variation by calculating the percentage of motility using the program GraphPad Prism (v.9.1.2; GraphPad Software). A compound was considered active (“hit”) if it reduced larval motility by ≥ 70%. To continually assess the performance of the screening assay, the Z′-factor ([Zhang et al., 1999]) was calculated (using data for the DMSO and the M-666 controls) for individual plates (n = 43) and was consistently ≥0.7; reliable assays achieve a Z′-factor of between 0.5 and 1. The signal to background (S/B) ratio (for the same controls) ([Sui and Wu, 2007]) was consistently >200.

Row | Structure (SMILES) | inhibition at 20 µM [1] | inhibition at 20 µM [2] | Abnormal phenotype detected at 168 h [1]
1 | CS(=O)(=O)c1ccc2ccn(O)c2c1 [MBHF-hit29, 6-(methylsulfonyl)-1H-indol-1-ol] | < 80% | 72% | –
2 | CCCCOc1ccc(-c2ccc(C#N)cc2)cc1 [MBHF-hit4, 4'-butoxy[1,1'-biphenyl]-4-carbonitrile] | 100% | 95.6% | Cur, Evi
3 | N#Cc1c(Cl)c(Cl)c(Cl)c(Cl)c1C#N [MBHF-hit8, 3,4,5,6-tetrachlorophthalonitrile] | < 80% | 91% | –
4 | CC1=CSC(=C(C#N)C(=O)c2ccccc2Cl)N1c1ccccc1Cl [MBHF-hit13, 3-(2-chlorophenyl)-2-[3-(2-chlorophenyl)-4-methyl-1,3-thiazol-2(3H)-ylidene]-3-oxopropanenitrile] | < 80% | 78.8% | –
5 | N#CC(C#N)=NNc1ccc(C(F)(F)F)cc1 [MBHF-hit1, 2-{2-[4-(trifluoromethyl)phenyl]hydrazono}malononitrile] | 100% | 102% | –
6 | FC(F)(F)c1ccc(SCc2ccc(-c3ncns3)cc2)nc1 [MBHF-hit33, 5-[4-({[5-(trifluoromethyl)-2-pyridyl]thio}methyl)phenyl]-1,2,4-thiadiazole] | 80 to 99% | 70.3% | Cur, Evi
7 | Clc1ccc(Oc2ccnc3cc(Cl)ccc23)cc1 [MBHF-hit26, 7-chloro-4-(4-chlorophenoxy)quinoline] | 80 to 99% | 73.9% | Cur, Evi
8 | Cc1nc2c(cnn2-c2ccccc2)c(=O)o1 [MBHF-hit24, 6-methyl-1-phenylpyrazolo[3,4-d][1,3]oxazin-4(1H)-one] | < 80% | 74.6% | –
9 | CSc1c(-c2ccc(Cl)cc2)[nH]c2ccccc12 [MBHF-hit7, 2-(4-chlorophenyl)-3-(methylthio)-1H-indole] | 100% | 91.9% | Cur, Evi
10 | N#CC(=NNc1ccc(Cl)cc1Cl)C(=O)c1ccc(Cl)cc1 [MBHF-hit5, 3-(4-chlorophenyl)-2-[2-(2,4-dichlorophenyl)hydrazono]-3-oxopropanenitrile] | 100% | 95.2% | –
11 | O=C1c2ccccc2C(=O)N1CCSCc1cccc(C(F)(F)F)c1 [MBHF-hit21, 2-(2-{[3-(trifluoromethyl)benzyl]thio}ethyl)-1H-isoindole-1,3(2H)-dione] | 100% | 76.5% | Cur, Evi
12 | C(#Cc1ccc(-c2ccn[nH]2)cc1)c1ccccc1 [MBHF-hit6, 5-[4-(2-phenyleth-1-ynyl)phenyl]-1H-pyrazole] | 100% | 94% | Cur, Evi
13 | CCCc1ccc(-c2ccc(C#N)cc2)nc1 [MBHF-hit19, 4-(5-propyl-2-pyridyl)benzonitrile] | < 80% | 76.9% | –
14 | CC(=NOc1nc(-c2ccccc2)ns1)c1cccs1 [MBHF-hit3, 1-(2-thienyl)-1-ethanone O-(3-phenyl-1,2,4-thiadiazol-5-yl)oxime] | < 80% | 96.4% | Cur, Evi
15 | CCOC(=O)c1ccc(Oc2ccc(Cl)cc2Cl)c([N+](=O)[O-])c1 [MBHF-hit36, ethyl 4-(2,4-dichlorophenoxy)-3-nitrobenzoate] | < 80% | 70.2% | –
16 | O=C(Nc1ccc(F)cc1)Nc1cnn(-c2ccc([N+](=O)[O-])cc2)c1C(F)(F)F [MBHF-hit12, N-(4-fluorophenyl)-N'-[1-(4-nitrophenyl)-5-(trifluoromethyl)-1H-pyrazol-4-yl]urea] | 80 to 99% | 82.3% | Cur, Evi
17 | OC(CNCCNc1nccc(C(F)(F)F)n1)c1ccccc1 (stereo not drawn) [MBHF-hit35, 1-phenyl-2-[(2-{[4-(trifluoromethyl)pyrimidin-2-yl]amino}ethyl)amino]ethan-1-ol] | < 80% | 70.2% | –

Row | Structure (SMILES) | inhibition at 20 µM [1] | inhibition at 20 µM [2] | Abnormal phenotype detected at 168 h [1]
18 | CC12NC(=O)NC1(C)NC(=O)N2 (stereo not drawn) [MBHF-hit22, 3a,6a-dimethylperhydroimidazo[4,5-d]imidazole-2,5-dione] | < 80% | 76.3% | –
19 | COc1ccc(SCc2nsc(Sc3ccc(OC)cc3)n2)cc1 [MBHF-hit16, 5-[(4-methoxyphenyl)thio]-3-{[(4-methoxyphenyl)thio]methyl}-1,2,4-thiadiazole] | 80 to 99% | 78.5% | Cur, Evi
20 | Nc1ccccc1C(=O)N1CCN(c2ccc([N+](=O)[O-])cn2)CC1 [MBHF-hit11, (2-aminophenyl)[4-(5-nitro-2-pyridyl)piperazino]methanone] | < 80% | 82.7% | –
21 | COc1c(C(=O)NCc2ccc(Cl)cc2)csc1Cl [MBHF-hit27, 5-chloro-N-(4-chlorobenzyl)-4-methoxy-3-thiophenecarboxamide] | < 80% | 73.4% | Cur, Evi
22 | O=C(c1ccc(-c2cccs2)s1)c1ccc(F)cc1F [MBHF-hit20, (2,4-difluorophenyl)[5-(2-thienyl)-2-thienyl]methanone] | 100% | 76.7% | Str, Cur
23 | NC(=O)C1CCN(C(=O)c2ccc(Oc3cc(Cl)cc(Cl)c3)o2)CC1 [MBHF-hit15, 1-{[5-(3,5-dichlorophenoxy)-2-furyl]carbonyl}-4-piperidinecarboxamide] | < 80% | 78.7% | –
24 | N#CC(=NNc1cccc(C(F)(F)F)c1)C(=O)c1csc(-c2cccnc2)n1 [MBHF-hit18, 3-oxo-3-[2-(3-pyridyl)-1,3-thiazol-4-yl]-2-{2-[3-(trifluoromethyl)phenyl]hydrazono}propanenitrile] | < 80% | 77.1% | –
25 | CCCCCc1cnc(-c2ccc(C#N)cc2)nc1 [MBHF-hit25, 4-(5-pentylpyrimidin-2-yl)benzonitrile] | 100% | 74.5% | Cur, Evi
26 | Cc1ccc2oc(=O)n(CCC(N)=NOC(=O)c3ccccc3)c2c1 [MBHF-hit14, N'-(benzoyloxy)-3-[5-methyl-2-oxo-1,3-benzoxazol-3(2H)-yl]propanimidamide] | < 80% | 81.6% | –
27 | CSC(=NS(=O)(=O)c1ccc(C)cc1)N(C)C [MBHF-hit34, N1-[(dimethylamino)(methylthio)methylidene]-4-methylbenzene-1-sulfonamide] | < 80% | 70.3% | –
28 | O=C(C=CSc1ccc(Cl)cc1)c1cccs1 [MBHF-hit9, 3-[(4-chlorophenyl)thio]-1-(2-thienyl)prop-2-en-1-one] | 100% | 89.4% | –
29 | c1ccc(COc2ccc(CCC3OCCO3)cc2)cc1 [MBHF-hit32, 2-[4-(benzyloxy)phenethyl]-1,3-dioxolane] | < 80% | 71.1% | –
30 | CC(C)c1cc(Br)c(NC(=O)NCc2ccco2)c(Br)c1 [MBHF-hit23, N-(2,6-dibromo-4-isopropylphenyl)-N'-(2-furylmethyl)urea] | < 80% | 74.8% | –
31 | O=S1(=O)CC=C(Cl)C1 [MBHF-hit30, 3-chloro-2,5-dihydro-1H-1lambda~6~-thiophene-1,1-dione] | < 80% | 71.5% | –
32 | O=[N+]([O-])c1ccc2c(c1)CCN2S(=O)(=O)c1ccccc1 [MBHF-hit31, 5-nitro-1-(phenylsulfonyl)indoline] | < 80% | 71.5% | –
33 | C(#Cc1ccc(-c2cc[nH]n2)s1)c1ccccc1 [MBHF-hit2, 3-[5-(2-phenyleth-1-ynyl)-2-thienyl]-1H-pyrazole] | 100% | 98.4% | Cur, Evi
34 | O=C(c1cc(C(F)(F)F)cc(C(F)(F)F)c1)N1CCC(O)(c2ccc(Cl)cc2)CC1 [MBHF-hit10, [3,5-bis(trifluoromethyl)phenyl][4-(4-chlorophenyl)-4-hydroxypiperidino]methanone] | < 80% | 84.2% | –

Reference: publication PMC9616048, “Thermal proteome profiling reveals Haemonchus orphan protein HCO_011565 as a target of the nematocidal small molecule UMW-868” (Frontiers in Pharmacology, 2022)
